The IC50 is the concentration that gives 50% inhibition.

In one test the target is T1, GST tagged PIP4KtypeIIA (Homo sapiens, UniProt P48426).
T1 construct: made in house; host or cells: E. coli
T1 sequence (P48426 1-406): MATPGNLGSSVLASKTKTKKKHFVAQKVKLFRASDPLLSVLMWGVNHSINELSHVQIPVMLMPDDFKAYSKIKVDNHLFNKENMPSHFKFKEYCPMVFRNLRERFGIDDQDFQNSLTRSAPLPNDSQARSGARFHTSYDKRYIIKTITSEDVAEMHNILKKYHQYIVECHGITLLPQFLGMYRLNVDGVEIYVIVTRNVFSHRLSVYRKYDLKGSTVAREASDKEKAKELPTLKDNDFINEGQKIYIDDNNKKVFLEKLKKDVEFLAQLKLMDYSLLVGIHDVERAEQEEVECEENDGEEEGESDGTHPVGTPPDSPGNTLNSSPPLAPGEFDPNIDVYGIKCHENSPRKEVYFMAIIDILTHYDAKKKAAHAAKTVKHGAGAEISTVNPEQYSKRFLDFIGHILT
Put plainly: ADP-glo kinase assay PIP4K 2A (PIP4KtypeIIA inhibition assay). Conditions: Table 3; compounds listed under IC50 range headings; 10 uM ATP, 0.5 nM PIP4KIIA. In kind it is biochemical. The essentials: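 E. coli-expressed GST-PIP4KtypeIIA (0.5 nM final) was preincubated 1 h at 27 °C with compound (up to 4.8 μM, 5% DMSO) in PI5P/DOPE lipid in 50 mM HEPES pH 7.3 with 10 mM MgCl2. The reaction was started with 10 μM ATP (final) and run 1 h. ADP was read by ADP-Glo luminescence via a calibration curve, and IC50 was taken from % residual activity.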

In the next test the target is T2, GST tagged PIP4KtypeIIB (Homo sapiens, UniProt P78356).
T2 construct: made in house; host or cells: E. coli
T2 sequence (P78356 1-416): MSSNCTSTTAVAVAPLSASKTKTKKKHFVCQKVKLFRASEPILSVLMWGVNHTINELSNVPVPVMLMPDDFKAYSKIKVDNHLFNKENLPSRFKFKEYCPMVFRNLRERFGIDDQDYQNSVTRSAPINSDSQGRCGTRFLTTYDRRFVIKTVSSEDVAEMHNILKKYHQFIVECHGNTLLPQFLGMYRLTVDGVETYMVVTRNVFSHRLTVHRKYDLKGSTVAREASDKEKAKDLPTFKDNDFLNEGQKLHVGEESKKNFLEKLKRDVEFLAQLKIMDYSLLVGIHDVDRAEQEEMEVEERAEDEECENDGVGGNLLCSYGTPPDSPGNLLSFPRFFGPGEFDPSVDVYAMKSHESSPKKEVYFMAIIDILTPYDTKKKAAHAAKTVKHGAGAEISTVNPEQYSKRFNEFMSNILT
Put plainly: Trans-FI P kinase assay PIP4K2B (PIP4KtypeIIB inhibition assay). Conditions: Table 4; compounds listed under IC50 range headings; 100 uM GTP, 5 nM PIP4KIIB; read-out: Trans-FI P kinase assays: PIP4K2B IC50. In kind it is biochemical. The essentials:
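Purified GST-PIP4KIIB (5 nM final), 1 h preincubation with compound at 27 C, then 2 h reaction with 100 uM GTP and 80 uM PI5P plus DOPE carrier lipid in pH 7.3 HEPES/MgCl2/Triton buffer with 5% DMSO. GDP read by Transcreener FI fluorescence against a calibration curve; IC50 from % no-inhibitor activity vs log concentration.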

Test [1] addresses T3, PIP4K2A (full length protein, SignalChem) (Homo sapiens, UniProt P48426).
T3 construct: 4 nM PIP4K2A (full length protein, SignalChem); purchased SignalChem
T3 sequence (P48426 1-406): T1 sequence (P48426 1-406)
Put plainly: Kinase Assay PIP4K2 A (Sprint); ADP-Glo biochemical assay. Conditions: Table 2; compounds listed under IC50 range headings. The essentials: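 Compounds (10-point, 3-fold dilutions) were pre-incubated 15 min at RT with an enzyme/substrate mix of 4 nM full-length PIP4K2A and 100 μM PI(5)P diC8 in 20 mM MOPS pH 7.2, 25 mM MgCl2, 0.005% Tween 20. A 60 μM ATP solution was added, reaction 1 h RT; ADP read by ADP-Glo luminescence, IC50 fitted from % inhibition vs DMSO.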
(In general: ADP-Glo turns the ADP formed in a reaction into a luminescent signal.)

For `Nc1ncc(-c2csc3ncccc23)cc1-c1ccc(N2CCCC2=O)cn1` [Example 23, 1-(2′-amino-5′-(thieno[2,3-b]pyridin-3-yl)-[2,3′-bipyridin]-5-yl)pyrrolidin-2-one], the IC50 on GST tagged PIP4KtypeIIA is 0.1 to 1 µM; on GST tagged PIP4KtypeIIB, 0.1 to 1 µM; in test [1], 0.005 to 0.1 µM.
In the case of `Nc1ncc(-c2cccc3ncsc23)cc1-c1ccc(N2CCCC2=O)cn1` [Example 24, 1-(2′-amino-5′-(benzo[d]thiazol-7-yl)-[2,3′-bipyridin]-5-yl)pyrrolidin-2-one], the IC50 at GST tagged PIP4KtypeIIA is 1 to 2.5 µM; on GST tagged PIP4KtypeIIB it was 1 to 2.5 µM; in test [1] it was 0.1 to 1 µM.
Regarding `Nc1ncc(-c2cccc3nccn23)cc1-c1ccc(N2CCCC2=O)cn1` [Example 25, 1-(2′-amino-5′-(imidazo[1,2-a]pyridin-5-yl)-[2,3′-bipyridin]-5-yl)pyrrolidin-2-one], the IC50 against GST tagged PIP4KtypeIIA is 2.5 to 5 µM; on GST tagged PIP4KtypeIIB it was greater than 5 µM; in test [1], 1 to 2.5 µM.
On to `Nc1ncc(-c2c[nH]c3ncc(Cl)cc23)cc1-c1ccc(N2CCCC2=O)cn1` [Example 26, 1-(2′-amino-5′-(5-chloro-1H-pyrrolo[2,3-b]pyridin-3-yl)-[2,3′-bipyridin]-5-yl)pyrrolidin-2-one], for which the concentration for half-maximal inhibition (IC50) was in the range of 0.01 to 0.1 µM against GST tagged PIP4KtypeIIA, 0.1 to 1 µM at GST tagged PIP4KtypeIIB and 0.005 to 0.1 µM in test [1].
The corresponding values for `O=C1CCCN1c1ccc(-c2cncc(-c3c[nH]c4ncc(Cl)cc34)c2)cc1` [Example 27, 1-(4-(5-(5-chloro-1H-pyrrolo[2,3-b]pyridin-3-yl)pyridin-3-yl)phenyl)pyrrolidin-2-one] are 0.1 to 1 µM, 0.1 to 1 µM and 0.005 to 0.1 µM.
The corresponding values for `O=C1CCCN1c1ccc(-c2cncc(-c3c[nH]c4ncccc34)c2)cc1` [Example 28, 1-(4-(5-(1H-pyrrolo[2,3-b]pyridin-3-yl)pyridin-3-yl)phenyl)pyrrolidin-2-one] are 0.1 to 1 µM, 0.1 to 1 µM and 0.005 to 0.1 µM.
The corresponding values for `O=C1CCCN1c1ccc(-c2cncc(-c3c[nH]c4ncncc34)c2)cc1` [Example 30, 1-(4-(5-(7H-pyrrolo[2,3-d]pyrimidin-5-yl)pyridin-3-yl)phenyl)pyrrolidin-2-one] are 0.1 to 1 µM, 0.1 to 1 µM and 0.005 to 0.1 µM.
As to `Cc1cnc2[nH]cc(-c3cncc(-c4ccc(N5CCCC5=O)cc4)c3)c2c1` [Example 31, 1-(4-(5-(5-methyl-1H-pyrrolo[2,3-b]pyridin-3-yl)pyridin-3-yl)phenyl)pyrrolidin-2-one], the figures for the IC50 (against GST tagged PIP4KtypeIIA; at GST tagged PIP4KtypeIIB; in test [1]) were 0.01 to 0.1 µM, 0.1 to 1 µM and 0.005 to 0.1 µM, respectively.
On the same counts, the results for `Cn1ccc(-c2cncc(-c3ccc(N4CCCC4=O)cc3)c2)cc1=O` [Example 33, 1′-methyl-5-(4-(2-oxopyrrolidin-1-yl)phenyl)-[3,4′-bipyridin]-2′(1′H)-one] are greater than 5 µM, greater than 5 µM and less than 5 µM.
On the same counts, the results for `COc1cnc2[nH]ccc2c1-c1cncc(-c2ccc(N3CCCC3=O)cc2)c1` [Example 34, 1-(4-(5-(5-methoxy-1H-pyrrolo[2,3-b]pyridin-4-yl)pyridin-3-yl)phenyl)pyrrolidin-2-one] are 0.1 to 1 µM, 0.1 to 1 µM and 0.005 to 0.1 µM.
On the same counts, the results for `Cc1cnc2[nH]ccc2c1-c1cncc(-c2ccc(N3CCCC3=O)cc2)c1` [Example 35, 1-(4-(5-(5-methyl-1H-pyrrolo[2,3-b]pyridin-4-yl)pyridin-3-yl)phenyl)pyrrolidin-2-one] are 1 to 2.5 µM, 0.1 to 1 µM and 0.1 to 1 µM.
For the compound `O=C1CCCN1c1ccc(-c2cncc(-c3ccc(=O)[nH]c3)c2)cc1` [Example 36, 5′-(4-(2-oxopyrrolidin-1-yl)phenyl)-[3,3′-bipyridin]-6(1H)-one], the values for the IC50 (against GST tagged PIP4KtypeIIA; at GST tagged PIP4KtypeIIB; in test [1]) were greater than 5 µM, 2.5 to 5 µM and 1 to 2.5 µM, respectively.
The corresponding values for `Cn1cc(-c2cncc(-c3ccc(N4CCCC4=O)cc3)c2)ccc1=O` [Example 37, 1-methyl-5′-(4-(2-oxopyrrolidin-1-yl)phenyl)-[3,3′-bipyridin]-6(1H)-one] are greater than 5 µM, greater than 5 µM and 2.5 to 5 µM.
On the same counts, the results for `Cn1cc(-c2cncc(-c3ccc(N4CCCC4=O)cc3)c2)c2cccnc21` [Example 39, 1-(4-(5-(1-methyl-1H-pyrrolo[2,3-b]pyridin-3-yl)pyridin-3-yl)phenyl)pyrrolidin-2-one] are 0.1 to 1 µM, 0.1 to 1 µM and 0.005 to 0.1 µM.
On the same counts, the results for `O=C1CCCN1c1ccc(-c2cncc(-c3ccnc4c3OCCO4)c2)cc1` [Example 40, 1-[4-[5-(2,3-Dihydro-[1,4]dioxino[2,3-b]pyridin-8-yl)-3-pyridyl]phenyl]pyrrolidin-2-one] are 2.5 to 5 µM, 1 to 2.5 µM and 0.1 to 1 µM.
Regarding `O=C1CCCN1c1ccc(-c2cncc(-c3ccncc3)c2)cc1` [Example 41, 1-[4-[5-(4-Pyridyl)-3-pyridyl]phenyl]pyrrolidin-2-one], the figures for the IC50 (on GST tagged PIP4KtypeIIA; at GST tagged PIP4KtypeIIB; in test [1]) were greater than 5 µM, greater than 5 µM and 1 to 2.5 µM, respectively.
Consider `O=C1Cc2c(-c3cncc(-c4ccc(N5CCCC5=O)cc4)c3)ccnc2N1` [Example 42, 4-(5-(4-(2-oxopyrrolidin-1-yl)phenyl)pyridin-3-yl)-1,3-dihydro-2H-pyrrolo[2,3-b]pyridin-2-one], for which the IC50 was 2.5 to 5 µM on GST tagged PIP4KtypeIIA, 1 to 2.5 µM on GST tagged PIP4KtypeIIB and 0.1 to 1 µM in test [1].
On the same counts, the results for `O=C1CCCN1c1ccc(-c2cncc(-c3ccnc4c3cnn4CCO)c2)cc1` [Example 44, 1-(4-(5-(1-(2-hydroxyethyl)-1H-pyrazolo[3,4-b]pyridin-4-yl)pyridin-3-yl)phenyl)pyrrolidin-2-one] are 0.1 to 1 µM, 0.1 to 1 µM and 0.1 to 1 µM.
The corresponding values for `O=C1NCCn2c1cc1c(-c3cncc(-c4ccc(N5CCCC5=O)cc4)c3)ccnc12` [Example 45, 4-(5-(4-(2-oxopyrrolidin-1-yl)phenyl)pyridin-3-yl)-8,9-dihydropyrido[3′,2′:4,5]pyrrolo[1,2-a]pyrazin-6(7H)-one] are 0.1 to 1 µM, 0.01 to 0.1 µM and 0.005 to 0.1 µM.
The corresponding values for `CN1CCn2c(cc3c(-c4cncc(-c5ccc(N6CCCC6=O)cc5)c4)ccnc32)C1=O` [Example 46, 7-methyl-4-(5-(4-(2-oxopyrrolidin-1-yl)phenyl)pyridin-3-yl)-8,9-dihydropyrido[3′,2′:4,5]pyrrolo[1,2-a]pyrazin-6(7H)-one] are 0.1 to 1 µM, 0.01 to 0.1 µM and 0.005 to 0.1 µM.
For the compound `O=C1c2cc3c(-c4cncc(-c5ccc(N6CCCC6=O)cc5)c4)ccnc3n2CCN1CC1CC1` [Example 47, 7-(cyclopropylmethyl)-4-(5-(4-(2-oxopyrrolidin-1-yl)phenyl)pyridin-3-yl)-8,9-dihydropyrido[3′,2′:4,5]pyrrolo[1,2-a]pyrazin-6(7H)-one], the results for the IC50 (at GST tagged PIP4KtypeIIA; at GST tagged PIP4KtypeIIB; in test [1]) were 0.1 to 1 µM, 0.01 to 0.1 µM and 0.005 to 0.1 µM, respectively.

(Values after patent US11919902B2, “Aryl-bipyridine amine derivatives as phosphatidylinositol phosphate kinase inhibitors” (HiberCell, Inc., priority 2017, dated 2024).)
